Measurements published in article PMC9224751 (International Journal of Molecular Sciences, 2022).
Read-outs that look alike come from different tables or passages of the source.

Key:
[1] = tested on: SARS-CoV-2 Wuhan type (SARS-CoV-2PR-1); assay: SARS-CoV-2 replication in Caco-2 cells, qRT-PCR; type: cell-based; conditions: Severe acute respiratory syndrome coronavirus 2, 3 dpi
[2] = tested on: SARS-CoV-2 Wuhan type (SARS-CoV-2PR-1); assay: Quantitative immunofluorescence of SARS-CoV-2 nucleoprotein (NP) in infected Calu-3 cells; type: cell-based; conditions: 30 h treatment, increasing concentrations
Protocol: In addition, and to confirm the results obtained from the qRT-PCR analysis of the cell culture supernatants, Calu-3 cells were infected with the wildtype isolate SARS-CoV-2PR-1 at the same MOI (Figure 1) and subsequently treated with different concentrations of PAM for 30 h. Cells were fixed and further stained with a SARS-CoV-2 nucleoprotein (NP)-specific antibody. RDV was used as a positive control at 1 µM (Figure S1, see Supplementary Materials).
For immunostaining, infected Calu-3 cells were fixed with 4% PFA for 15 min. Following a washing step with PBS, cells were blocked and permeabilized overnight with 1% BSA in PBS (+0.2% Triton) and afterwards stained with a polyclonal rabbit anti-NP antibody (GeneTex, Cat. No. GTX135357, Irvine, CA, USA) for 24 h. […] For analysis, immunostaining was quantitative analyzed with a PerkinElmer VictorX4 reader (488 nm) (PerkinElmer, Waltham, MA, USA) and pictures were taken using a CTL-ELISPOT reader (Cellular Technology Ltd., Shaker Heights, OH, USA).
Figure S1. […] Quantitative immunofluorescent microscopy was performed to detect the viral nucleocapsid protein in Calu-3 cells 30 hrs post-infection with SARS-CoV-2 Wuhan type using an Alexa488-conjugated anti-SARS-CoV-2 nucleo-protein (NP)-antibody or DAPI as a control. […]

SARS-CoV-2 Gamma = assay: VoC replication in Calu-3 cells, qRT-PCR; type: cell-based; conditions: Severe acute respiratory syndrome coronavirus 2
[3] = tested on: SARS-CoV-2 Wuhan type (SARS-CoV-2PR-1); assay: SARS-CoV-2 replication in A549-ACE2+/TMPRSS2+ cells, qRT-PCR; type: cell-based; conditions: Severe acute respiratory syndrome coronavirus 2, 3 dpi
SARS-CoV-2 Alpha = assay: VoC replication in Calu-3 cells, qRT-PCR; type: cell-based; conditions: Severe acute respiratory syndrome coronavirus 2
SARS-CoV-2 Beta = assay: VoC replication in Calu-3 cells, qRT-PCR; type: cell-based; conditions: Severe acute respiratory syndrome coronavirus 2
SARS-CoV-2 Delta = assay: VoC replication in Calu-3 cells, qRT-PCR; type: cell-based; conditions: for IC50 / IC90: Severe acute respiratory syndrome coronavirus 2, […]
[4] = tested on: uninfected Vero B4, A549-ACE2/TMPRSS2+, Caco-2, or Calu-3 cells; assay: WST-1 cell viability assay, all cell types; type: cell-based; conditions: three days
Protocol: (§1) To control for potential unspecific effects of PAM treatment on cell viability, water-soluble tetrazolium salt (WST)-1 assays were performed in uninfected Vero B4, A549-ACE2/TMPRSS2+, Caco-2, or Calu-3 cells under otherwise identical conditions as the virus infection experiments. […] Staurosporine (StS) was used as a positive control at a concentration of 1 µM. DMSO as a solvent control was added in the same amount as the respective highest concentration of PAM.
(§2) Following treatment with different concentrations of PAM (PAM concentrations are indicated at the x-axis) for three days, the influence on cell viability was measured by water-soluble tetrazolium salt (WST)-1 assay. […] Staurosprine (StS, 1 µM) was used as a positive control. DMSO as solvent control was added in the same amount as in the highest concentration of PAM (100 µM (A,B); 1000 µM (C,D)).
(§3) Viability of uninfected and treated cells was assessed by the water-soluble tetrazolium salt (WST)-1 assay (Roche, Basel, Switzerland) according to the manufacturer’s instructions. Cells were treated for 72 h with various inhibitors according to the protocols of the infection experiments.

Calu-3 cells = assay: WST-1 cell viability assay; type: cell-based, human; conditions: uninfected Calu-3, three days
Protocol: as §1, §2, §3

SARS-CoV-2 Wuhan type = assay: SARS-CoV-2 replication, summary over Vero B4, A549-ACE2+/TMPRSS2+, Caco-2 and Calu-3 cells, qRT-PCR; type: cell-based; conditions: for IC90: Severe acute respiratory syndrome coronavirus 2, Wuhan type, Vero B4, A549-ACE2+/TMPRSS2+, Caco-2, Calu-3, read-out: IC90 values, range among all investigated cell lines
[5] = tested on: SARS-CoV-2 Wuhan type (SARS-CoV-2PR-1); assay: SARS-CoV-2 replication in Vero B4 cells, virions in supernatant by qRT-PCR; type: cell-based; conditions: for IC50: MOI 2 × 10^−2
[6] = tested on: SARS-CoV-2 Wuhan type (SARS-CoV-2PR-1); assay: SARS-CoV-2 replication in Calu-3 cells, qRT-PCR; type: cell-based; conditions: for IC50 / IC90: Severe acute respiratory syndrome coronavirus 2, Calu-3, Wuhan type, 3 dpi
[7] = tested on: SARS-CoV-2 Omicron (SARS-CoV-2OM); assay: VoC replication in Calu-3 cells, qRT-PCR; type: cell-based
[8] = tested on: SARS-CoV-2 VoCs Alpha, Beta, Gamma, Delta, and Omicron; assay: VoC replication in Calu-3 cells, summary over all VoCs, qRT-PCR; type: cell-based; conditions: for IC90: Severe acute respiratory syndrome coronavirus 2, read-out: IC90, range over VoCs
Caco-2 cells = assay: WST-1 cell viability assay; conditions: uninfected Caco-2, three days
[9] = tested on: SARS-CoV-2 Wuhan Type, Delta, or Omicron; assay: Combination treatment in Calu-3 cells, summary over the three viruses, qRT-PCR; type: cell-based; conditions: single treatment
[10] = design: method as in PMID 34580086; conditions: use of Pio, after a COVID-19 diagnosis, cited from earlier work
SARS-CoV-2 [11] = conditions: Vero E6 cells; published; cited from earlier work
SARS-CoV-2 [12] = conditions: Calu-3; published; cited from earlier work
[13] = Severe acute respiratory syndrome coronavirus 2, Vero B4, Wuhan type, 3 dpi
[14] = Severe acute respiratory syndrome coronavirus 2, Calu-3
[15] = Severe acute respiratory syndrome coronavirus 2, Calu-3, Calu-3, […]

SMILES | IC50 [1] | IC50 (SARS-CoV-2 Gamma) | IC90 (SARS-CoV-2 Gamma) | IC50 [3] | IC50 (SARS-CoV-2 Alpha) | IC90 (SARS-CoV-2 Alpha) | IC50 (SARS-CoV-2 Beta) | IC90 (SARS-CoV-2 Beta) | IC50 (SARS-CoV-2 Delta) | IC90 (SARS-CoV-2 Delta) | TD50 (Calu-3 cells) | IC90 (SARS-CoV-2 Wuhan type) | IC50 [5, 13] | inhibition at 0.05 µM [6, 14] | IC50 [6] | IC90 [6] | IC50 [7, 15] | IC90 [7, 15] | IC90 [8] | TD50 (Caco-2 cells) | other results
Cn1c(=O)c(Oc2ccc(F)cc2F)cc2cnc(NC(CCO)CCO)nc21 [PAM, Pamapimod] | ~0.25 µM | ~0.25 µM | ~3 µM | ~0.2 µM | ~0.25 µM | ~3 µM | ~0.25 µM | ~3 µM | ~0.25 µM | ~4 µM | ~ 1000 µM | 2 to 3 µM | ~0.2 µM | 33.9% | ~0.1 µM | ~3 µM | ~0.25 µM | ~2 µM | 3 to 4 µM | ~ 1000 µM | IC90 [1]: ~3 µM; SARS-CoV-2 replication within infected cells (NP staining normalized to DAPI) [2]: effectively suppressed SARS-CoV-2 replication in a dose-dependent manner; IC90 [3]: ~2 µM; inhibition at 0.01 µM (SARS-CoV-2 Delta; Severe acute respiratory syndrome coronavirus 2, PAM 0.01 µM, Pio 0 µM, Fig 7D): 2.86%; inhibition at 0.05 µM (SARS-CoV-2 Delta; Severe acute respiratory syndrome coronavirus 2, PAM 0.05 µM, Pio 0 µM, Fig 7D): 27.6%; impact on cell viability ([4]; concentrations up to 100 µg/mL): no impact on cell viability; production of progeny virions (SARS-CoV-2 Wuhan type; at a concentration of 6.25 µM, all infected cell lines): almost completely blocked; IC90 ([5]; Severe acute respiratory syndrome coronavirus 2, Vero B4, Wuhan type, 3 dpi, read-out: IC90): ~2 µM; inhibition at 0.01 µM [6, 14]: 10.5%; IC90 ([7]; Calu-3, […]): ~3 µM; inhibition at 0.01 µM ([7]; Severe acute respiratory syndrome coronavirus 2, PAM 0.01 µM, Pio 0 µM, Calu-3, Fig 7F): 3.6%; inhibition at 0.05 µM ([7]; Severe acute respiratory syndrome coronavirus 2, PAM 0.05 µM, Pio 0 µM, Calu-3, Fig 7F): 28.6%; IC50 ([8]; Severe acute respiratory syndrome coronavirus 2): ~0.25 µM; reduction of virus replication, max. ([9]; 50 nM PAM, Figure 7B): ≤ 33%
CCc1ccc(CCOc2ccc(CC3SC(=O)NC3=O)cc2)nc1 (centres unmarked) [Pio, Pioglitazone] | ~0.7 µM | ~0.7 µM | ~15 µM | ~1 µM | ~0.8 µM | ~15 µM | ~0.9 µM | ~15 µM | ~0.5 µM | ~12 µM | 500 to 1000 µM | 8 to 10 µM | ~0.5 µM | 15.9% | ~0.8 µM | ~10 µM | ~0.9 µM | ~10 µM | 12 to 15 µM | 500 to 1000 µM | hospital admissions ([10]; vs. 28.2% comparator): 20.0%; RR of hospital admissions [10]: 0.71; inhibition at 0.02 µM (SARS-CoV-2 Delta; Severe acute respiratory syndrome coronavirus 2, PAM 0 µM, Pio 0.02 µM, Fig 7D): 0.48%; inhibition at 0.05 µM (SARS-CoV-2 Delta; Severe acute respiratory syndrome coronavirus 2, PAM 0 µM, Pio 0.05 µM, Fig 7D): 12.2%; inhibition at 0.1 µM (SARS-CoV-2 Delta; Severe acute respiratory syndrome coronavirus 2, PAM 0 µM, Pio 0.1 µM, Fig 7D): 32.4%; inhibition at 0.3 µM (SARS-CoV-2 Delta; Severe acute respiratory syndrome coronavirus 2, PAM 0 µM, Pio 0.3 µM, Fig 7D): 46.9%; impact on cell viability ([4]; concentrations up to ~80 µM): no impact on cell viability; SARS-CoV-2 replication (SARS-CoV-2 Wuhan type; at ~80 µM, all test settings): completely suppresses; IC90 ([5]; Severe acute respiratory syndrome coronavirus 2, Vero): ~8 µM; inhibition at 0.02 µM [6, 14]: 4.64%; inhibition at 0.1 µM [6, 14]: 36.9%; inhibition at 0.3 µM [6, 14]: 48.3%; IC50 ([7]; Calu-3, […]): ~0.7 µM; inhibition at 0.02 µM ([7]; Severe acute respiratory syndrome coronavirus 2, PAM 0 µM, Pio 0.02 µM, Calu-3, Fig 7F): 1.44%; inhibition at 0.05 µM ([7]; Severe acute respiratory syndrome coronavirus 2, PAM 0 µM, Pio 0.05 µM, Calu-3, Fig 7F): 12.2%; inhibition at 0.1 µM ([7]; Severe acute respiratory syndrome coronavirus 2, PAM 0 µM, Pio 0.1 µM, Calu-3, Fig 7F): 27.1%; inhibition at 0.3 µM ([7]; Severe acute respiratory syndrome coronavirus 2, PAM 0 µM, Pio 0.3 µM, Calu-3, Fig 7F): 44%; reduction of viral replication, max. ([9]; 300 nM Pio, Figure 7D): ≤ 48%
CCC(CC)COC(=O)[C@H](C)N[P@](=O)(OC[C@H]1O[C@@](C#N)(c2ccc3c(N)ncnn23)[C@H](O)[C@@H]1O)Oc1ccccc1 [Remdesivir] | – | – | – | – | – | – | – | – | – | – | – | – | – | – | – | – | – | – | – | – | IC90 (SARS-CoV-2 [11]): 3 µM; IC90 (SARS-CoV-2 [12]): 1.28 µM
